ChEMBL document CHEMBL1649076, “Discovery of 5-chloro-N2-[(1S)-1-(5-fluoropyrimidin-2-yl)ethyl]-N4-(5-methyl-1H-pyrazol-3-yl)pyrimidine-2,4-diamine (AZD1480) as a novel inhibitor of the Jak/Stat pathway” (J Med Chem, 2011)

What was measured:
[1] = target: T1, Tyrosine-protein kinase JAK2 (Homo sapiens, UniProt O60674); assay: Inhibition of JAK2 using Km ATP concentration
[2] = target: T1, Tyrosine-protein kinase JAK2; assay: Inhibition of JAK2 using 5 mM of ATP
[3] = target: T2, Tyrosine-protein kinase JAK3 (Homo sapiens, UniProt P52333); assay: Inhibition of JAK3 using 5 mM of ATP
T2 sequence (P52333 whole entry): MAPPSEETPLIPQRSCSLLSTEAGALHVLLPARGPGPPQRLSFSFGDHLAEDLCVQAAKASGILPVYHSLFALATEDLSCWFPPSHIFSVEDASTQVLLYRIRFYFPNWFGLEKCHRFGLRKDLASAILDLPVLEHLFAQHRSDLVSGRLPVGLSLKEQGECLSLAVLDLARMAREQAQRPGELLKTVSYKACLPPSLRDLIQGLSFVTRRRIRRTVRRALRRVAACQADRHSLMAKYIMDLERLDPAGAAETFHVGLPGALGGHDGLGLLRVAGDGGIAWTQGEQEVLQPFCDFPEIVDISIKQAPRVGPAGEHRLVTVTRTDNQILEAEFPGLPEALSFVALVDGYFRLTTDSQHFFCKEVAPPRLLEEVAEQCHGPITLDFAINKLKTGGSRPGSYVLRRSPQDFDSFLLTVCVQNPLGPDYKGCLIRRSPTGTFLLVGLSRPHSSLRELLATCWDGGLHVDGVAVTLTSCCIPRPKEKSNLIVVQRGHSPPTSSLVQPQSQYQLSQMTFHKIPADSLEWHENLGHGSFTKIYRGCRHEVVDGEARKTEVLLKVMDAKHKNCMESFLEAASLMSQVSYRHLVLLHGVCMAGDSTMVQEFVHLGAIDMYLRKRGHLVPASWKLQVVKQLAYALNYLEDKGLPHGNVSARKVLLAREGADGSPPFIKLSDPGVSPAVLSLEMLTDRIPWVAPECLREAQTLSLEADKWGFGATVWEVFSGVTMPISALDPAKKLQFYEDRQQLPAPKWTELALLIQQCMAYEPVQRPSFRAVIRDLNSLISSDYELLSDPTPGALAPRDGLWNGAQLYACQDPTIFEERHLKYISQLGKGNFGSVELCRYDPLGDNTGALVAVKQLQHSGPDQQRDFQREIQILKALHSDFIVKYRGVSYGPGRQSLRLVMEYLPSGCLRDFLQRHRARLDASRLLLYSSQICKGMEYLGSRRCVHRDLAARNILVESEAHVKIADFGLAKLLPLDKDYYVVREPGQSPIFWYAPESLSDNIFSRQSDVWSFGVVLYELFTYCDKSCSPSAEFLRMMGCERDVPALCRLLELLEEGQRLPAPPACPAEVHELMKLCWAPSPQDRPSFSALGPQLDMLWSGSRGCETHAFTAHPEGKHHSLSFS

[4] = Growth inhibition of mouse BA/F3 cells expressing Tel-JAK2 kinase after 48 hrs by MTS assay; format: functional; settings: BaF3, 48 h
[5] = test system: Liver microsomes; assay: Intrinsic clearance in rat liver microsomes assessed per mg of protein at 2 uM by LCMS/MS analysis; format: ADME, Microsome
[6] = Oral bioavailability in Han Wistar rat at 10 mg/kg; format: ADME, organism-based; settings: in vivo
[7] = Observed clearance in Han Wistar rat at 10 mg/kg, po and 3 mg/kg, iv; format: ADME, organism-based; settings: in vivo
[8] = Volume of distribution at steady state in Han Wistar rat at 10 mg/kg, po and 3 mg/kg, iv; format: ADME, organism-based; settings: in vivo, read-out: Vdss
[9] = Half life in Han Wistar rat at 10 mg/kg, po and 3 mg/kg, iv; format: ADME, organism-based; settings: in vivo
[10] = Aqueous equilibrium solubility of the compound at pH 7.4 by HPLC-UV analysis; format: physicochemical
[11] = Octanol-water partition coefficient, log D of the compound at pH 7.4 by shake flask method; format: physicochemical
[12] = Inhibition of Stat5 phosphorylation in mouse Ba/F3 cells expressing EPOR; settings: BaF3
[13] = Observed clearance in CD1 mouse at 3 mg/kg, iv; format: ADME, organism-based; design: dose 3 mg/kg, route intravenous; settings: in vivo
[14] = Half life in CD1 mouse at 3 mg/kg, iv; format: ADME, organism-based; design: dose 3 mg/kg, route intravenous; settings: in vivo
[15] = Half life in CD1 mouse at 10 mg/kg, po; format: ADME, organism-based; design: dose 10 mg/kg, route oral; settings: in vivo
[16] = Volume of distribution at steady state in CD1 mouse at 3 mg/kg, iv; format: ADME, organism-based; design: dose 3 mg/kg, route intravenous; settings: in vivo, read-out: Vdss
[17] = AUC (0 to 12 hrs) in CD1 mouse at 10 mg/kg, po; format: ADME, organism-based; design: time < 12 hr, dose 10 mg/kg, route oral; settings: plasma
[18] = Oral bioavailability in CD1 mouse at 10 mg/kg; format: ADME, organism-based; settings: in vivo
[19] = Observed clearance in Beagle dog at 2.5 mg/kg, iv; format: ADME, organism-based, Canis lupus familiaris; design: dose 2.5 mg/kg, route intravenous; settings: in vivo
[20] = Half life in Beagle dog at 2.5 mg/kg, iv; format: ADME, organism-based, Canis lupus familiaris; design: dose 2.5 mg/kg, route intravenous; settings: in vivo
[21] = Half life in Beagle dog at 10 mg/kg, po; format: ADME, organism-based, Canis lupus familiaris; design: dose 10 mg/kg, route oral; settings: in vivo
[22] = Volume of distribution at steady state in Beagle dog at 2.5 mg/kg, iv; format: ADME, organism-based, Canis lupus familiaris; design: dose 2.5 mg/kg, route intravenous; settings: in vivo, read-out: Vdss
[23] = AUC (0 to 12 hrs) in Beagle dog at 10 mg/kg, po; format: ADME, organism-based, Canis lupus familiaris; design: time < 12 hr, dose 10 mg/kg, route oral; settings: plasma
[24] = Oral bioavailability in Beagle dog at 10 mg/kg; format: ADME, organism-based, Canis lupus familiaris; settings: in vivo
[25] = test system: HEL; assay: Growth inhibition of human HEL cells expressing Jak2 V617F mutant after 48 hrs by MTS assay; format: functional
[26] = Growth inhibition of human UKE1 cells expressing Jak2 V617F mutant after 48 hrs by MTS assay; format: functional; settings: UKE1, 48 h
[27] = target: High affinity nerve growth factor receptor (Homo sapiens, UniProt P04629); assay: Inhibition of TrkA
[28] = Growth inhibition of human SET2 cells expressing Jak2 V617F mutant after 48 hrs by MTS assay; format: functional; settings: SET-2, 48 h
[29] = Growth inhibition of mouse BA/F3 cells expressing Tel-JAK3 kinase after 48 hrs by MTS assay; format: functional; settings: BaF3, 48 h
[30] = Growth inhibition of mouse BA/F3 cells expressing Tel-JAK1 kinase after 48 hrs by MTS assay; format: functional; settings: BaF3, 48 h
[31] = Growth inhibition of mouse BA/F3 cells expressing Tel-Tyk2 kinase after 48 hrs by MTS assay; format: functional; settings: BaF3, 48 h
[32] = test system: Mus musculus; assay: Antitumor activity against mouse BA/F3 cells expressing Tel-JAK2 xenografted in NCr mouse assessed as reduction of phosphorylated Stat5 level in spleen at 10 mg/kg, po after 8 hrs by Western blotting; format: functional, BaF3; design: scale not given: the % may be the effect or the level left
[33] = test system: Mus musculus; assay: Antitumor activity against mouse BA/F3 cells expressing Tel-JAK2 xenografted in NCr mouse assessed as reduction of phosphorylated Stat5 level in spleen at 5 mg/kg, po after 2 hrs by Western blotting; format: functional, BaF3; design: scale not given: the % may be the effect or the level left
[34] = test system: Mus musculus; assay: Antitumor activity against mouse BA/F3 cells expressing Tel-JAK2 xenografted in NCr mouse assessed as reduction of phosphorylated Stat5 level in spleen at 5 mg/kg, po after 6 hrs by Western blotting; format: functional, BaF3; design: scale not given: the % may be the effect or the level left
[35] = Antitumor activity against mouse BA/F3 cells expressing Tel-JAK2-luc xenografted in NCr mouse assessed as reduction of bioluminescent signal at 50 mg/kg, po bid measured on day 9 post-tumor cell implantation relative to control; format: functional, BaF3
[36] = Antitumor activity against mouse BA/F3 cells expressing Tel-JAK2-luc xenografted in NCr mouse assessed as reduction of bioluminescent signal at 30 mg/kg, po bid measured on day 9 post-tumor cell implantation relative to control; format: functional, BaF3
[37] = Inhibition of Stat5 phosphorylation in mouse Ba/F3 cells expressing TEL-Jak2; format: cell-based; settings: BaF3
[38] = AUC (0 to 24 hrs) in Han Wistar rat at 10 mg/kg, po; format: ADME, organism-based; design: time < 24 hr, dose 10 mg/kg, route oral; settings: plasma

T1 sequence (O60674 whole entry): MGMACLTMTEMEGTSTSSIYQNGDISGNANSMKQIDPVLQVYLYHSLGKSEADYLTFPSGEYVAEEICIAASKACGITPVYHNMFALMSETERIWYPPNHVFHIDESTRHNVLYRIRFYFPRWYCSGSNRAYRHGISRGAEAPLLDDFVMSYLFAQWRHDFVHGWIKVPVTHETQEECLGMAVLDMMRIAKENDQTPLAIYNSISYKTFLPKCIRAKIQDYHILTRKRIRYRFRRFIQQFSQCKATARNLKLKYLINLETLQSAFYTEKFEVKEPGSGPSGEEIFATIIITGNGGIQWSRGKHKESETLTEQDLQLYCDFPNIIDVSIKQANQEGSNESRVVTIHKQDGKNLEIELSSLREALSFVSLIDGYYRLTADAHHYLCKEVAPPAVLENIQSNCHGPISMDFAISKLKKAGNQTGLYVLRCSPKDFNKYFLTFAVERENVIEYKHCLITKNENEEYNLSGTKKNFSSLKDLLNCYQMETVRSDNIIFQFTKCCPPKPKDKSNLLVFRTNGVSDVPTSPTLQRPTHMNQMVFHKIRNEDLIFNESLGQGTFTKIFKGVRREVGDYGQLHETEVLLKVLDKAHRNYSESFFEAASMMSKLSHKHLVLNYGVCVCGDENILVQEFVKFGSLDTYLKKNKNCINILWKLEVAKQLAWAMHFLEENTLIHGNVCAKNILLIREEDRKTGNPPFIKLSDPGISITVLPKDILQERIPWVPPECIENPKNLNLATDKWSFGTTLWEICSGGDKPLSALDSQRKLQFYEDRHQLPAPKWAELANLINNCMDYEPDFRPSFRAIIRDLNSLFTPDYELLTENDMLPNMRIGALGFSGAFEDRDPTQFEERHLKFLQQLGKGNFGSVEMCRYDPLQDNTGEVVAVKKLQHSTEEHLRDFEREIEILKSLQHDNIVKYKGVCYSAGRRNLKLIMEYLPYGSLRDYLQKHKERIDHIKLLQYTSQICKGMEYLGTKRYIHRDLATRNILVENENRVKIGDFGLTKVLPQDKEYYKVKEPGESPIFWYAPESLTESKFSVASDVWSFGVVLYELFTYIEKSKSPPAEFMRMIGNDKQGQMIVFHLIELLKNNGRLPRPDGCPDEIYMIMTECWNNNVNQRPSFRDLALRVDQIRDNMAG
Chain of High affinity nerve growth factor receptor (P04629 whole entry): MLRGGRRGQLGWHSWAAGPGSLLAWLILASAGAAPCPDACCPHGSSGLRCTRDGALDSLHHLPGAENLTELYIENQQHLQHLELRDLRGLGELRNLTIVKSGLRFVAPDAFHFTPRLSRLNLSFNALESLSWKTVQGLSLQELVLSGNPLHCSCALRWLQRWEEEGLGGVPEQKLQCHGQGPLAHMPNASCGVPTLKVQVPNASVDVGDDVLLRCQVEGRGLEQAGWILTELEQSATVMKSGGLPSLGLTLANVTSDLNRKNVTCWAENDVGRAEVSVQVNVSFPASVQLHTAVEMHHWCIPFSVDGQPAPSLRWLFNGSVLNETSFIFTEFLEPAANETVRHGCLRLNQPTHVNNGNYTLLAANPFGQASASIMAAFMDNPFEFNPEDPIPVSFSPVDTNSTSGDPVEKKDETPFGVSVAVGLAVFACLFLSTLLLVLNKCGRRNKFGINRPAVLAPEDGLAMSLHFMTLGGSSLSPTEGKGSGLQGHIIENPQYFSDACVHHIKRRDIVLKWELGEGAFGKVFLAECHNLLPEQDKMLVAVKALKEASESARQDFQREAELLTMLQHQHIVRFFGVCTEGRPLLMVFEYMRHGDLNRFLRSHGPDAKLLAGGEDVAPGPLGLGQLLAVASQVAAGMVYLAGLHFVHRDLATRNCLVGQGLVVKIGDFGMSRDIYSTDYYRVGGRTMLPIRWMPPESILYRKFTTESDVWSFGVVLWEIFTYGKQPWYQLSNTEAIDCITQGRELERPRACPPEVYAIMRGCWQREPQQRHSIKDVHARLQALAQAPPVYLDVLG

Cc1cc(Nc2nc(N[C@@H](C)c3ncc(F)cn3)nc(N3CCOCC3)c2Cl)n[nH]1
IC50 [1]: < 3 nM | IC50 [2]: 9 nM | IC50 [3]: 11800 nM | GI50 [4]: 17 nM | clearance [5]: 16 µL/min/mg | bioavailability [6]: 20% | clearance [7]: 221 mL/min/kg | Vd [8]: 4.6 L/kg | half-life [9]: 0.36 h | solubility thermodynamic [10]: > 460 µM | logD [11]: < 2.6

Cc1cc(Nc2nc(N[C@@H](C)c3ncc(F)cn3)ncc2F)n[nH]1
IC50 [3]: 5250 nM | GI50 [4]: 230 nM | clearance [5]: 10 µL/min/mg | bioavailability [6]: 100% | clearance [7]: 12 mL/min/kg | Vd [8]: 0.8 L/kg | half-life [9]: 0.85 h | solubility thermodynamic [10]: > 460 µM | logD [11]: < 2.6

Cc1cc(Nc2nc(O[C@@H](C)c3ncc(F)cn3)ncc2Cl)n[nH]1
IC50 [3]: 12700 nM | GI50 [4]: 170 nM | solubility thermodynamic [10]: > 460 µM | logD [11]: < 2.6 | EC50 [12]: 39000 nM

C[C@H](Nc1ncc(F)c(Nc2cc(N(C)C)[nH]n2)n1)c1ncc(F)cn1
IC50 [1]: 16 nM | IC50 [2]: 815 nM | IC50 [3]: > 30000 nM | GI50 [4]: 2200 nM | solubility thermodynamic [10]: > 460 µM | logD [11]: < 2.6

COc1cc(Nc2nc(N[C@@H](C)c3ncc(F)cn3)nc(N3CCOCC3)c2Cl)n[nH]1
IC50 [1]: 4 nM | IC50 [2]: 90 nM | IC50 [3]: 2960 nM | GI50 [4]: 1300 nM | solubility thermodynamic [10]: > 460 µM | logD [11]: < 2.6

Cc1cc(Nc2nc(N[C@@H](C)c3ncc(F)cn3)ncc2Cl)n[nH]1 [AZD-1480]
IC50 [1]: < 3 nM | IC50 [2]: 58 nM | IC50 [3]: 1360 nM | GI50 [4]: 60 nM | clearance [5]: 11 µL/min/mg | bioavailability [6]: 47% | clearance [7]: 8.9 mL/min/kg | Vd [8]: 3.6 L/kg | half-life [9]: 4.7 h | clearance [13]: 13.5 mL/min/kg | half-life [14]: 1.5 h | half-life [15]: 2 h | Vd [16]: 1.1 L/kg | AUC(0-t) at 12 h [17]: 57.6 µM·h | bioavailability [18]: 100% | clearance [19]: 2 mL/min/kg | half-life [20]: 6.9 h | half-life [21]: 8.5 h | Vd [22]: 1 L/kg | AUC(0-t) at 12 h [23]: 350 µM·h | bioavailability [24]: 100% | solubility thermodynamic [10]: > 460 µM | GI50 [25]: 390 nM | logD [11]: < 2.6 | GI50 [26]: 54 nM | IC50 [27]: 3 nM | GI50 [28]: 16 nM | GI50 [29]: 2100 nM | GI50 [30]: 700 nM | GI50 [31]: 2000 nM | Activity [32]: >70% | Activity [33]: 90% | Activity [34]: 50% | Activity [35]: 44 | Activity [36]: 9 | IC50 [37]: 46 nM

COc1cc(Nc2nc(N[C@@H](C)c3ncc(F)cn3)ncc2Br)n[nH]1
IC50 [1]: 4 nM | IC50 [2]: 108 nM | IC50 [3]: > 30000 nM | GI50 [4]: 590 nM | solubility thermodynamic [10]: > 460 µM | logD [11]: < 2.6

Cc1cc(Nc2nc(O[C@H](C)c3ncc(F)cn3)ncc2Cl)n[nH]1
IC50 [3]: > 30000 nM | GI50 [4]: > 10000 nM | solubility thermodynamic [10]: > 460 µM | logD [11]: < 2.6

Cc1cc(Nc2nc(N[C@H](C)c3ncc(F)cn3)ncc2Cl)n[nH]1
AUC(0-t) at 24 h [38]: 33.5 µM·h | GI50 [4]: 11000 nM | clearance [7]: 19 mL/min/kg | Vd [8]: 3 L/kg | half-life [9]: 2.9 h | solubility thermodynamic [10]: > 460 µM | logD [11]: < 2.6

C[C@H](Nc1ncc(Cl)c(Nc2cc(C3CC3)[nH]n2)n1)c1ncc(F)cn1
IC50 [1]: < 3 nM | GI50 [4]: 150 nM | solubility thermodynamic [10]: > 460 µM | logD [11]: < 2.6
